According to ChEMBL document CHEMBL5058564, “EUbOPEN Chemogenomics Library 2 (Incucyte)” (2022):

Legend:
Format in all cases: toxicity, cell-based
[1] = tested on: HEK-293T; assay: Incucyte cell viability with HEK293T; conditions: human, 10 µM, compound concentration 10 uM
[2] = tested on: U2OS; assay: Incucyte cell viability with U2OS; conditions: human, 10 µM, compound concentration 10 uM
[3] = tested on: Fibroblast; assay: Incucyte cell viability with human fibroblast; conditions: 10 µM, compound concentration 10 uM
[4] = 0 h, replicate number 1, timepoint 0 hours
[5] = 6 h, replicate number 1, timepoint 6 hours
[6] = 12 h, replicate number 2, timepoint 12 hours
[7] = 18 h, replicate number 1, timepoint 18 hours
[8] = 0 h, replicate number 2, timepoint 0 hours
[9] = 6 h, replicate number 2, timepoint 6 hours
[10] = 18 h, replicate number 2, timepoint 18 hours
[11] = 24 h, replicate number 2, timepoint 24 hours
[12] = 24 h, replicate number 1, timepoint 24 hours
[13] = 12 h, replicate number 1, timepoint 12 hours
Note: unitless GR value; below 1 slowed growth and below 0 cell loss.

Compound	Growth Rate [1, 4]	Growth Rate [1, 5]	Growth Rate [1, 6]	Growth Rate [1, 7]	Growth Rate [2, 8]	Growth Rate [2, 10]	Growth Rate [2, 11]	Growth Rate [3, 4]	Growth Rate [3, 5]	Growth Rate [3, 12]	Growth Rate [1, 9]	Growth Rate [2, 7]	Growth Rate [2, 12]	Growth Rate [3, 9]	Growth Rate [3, 13]	Growth Rate [3, 6]	Growth Rate [3, 7]	Growth Rate [2, 5]	Growth Rate [1, 10]	Growth Rate [1, 12]	further results
CC1(C)SSC(C)(C)[C@@H](NC(=O)[C@@H](N)Cc2ccc(O)cc2)C(=O)NCC(=O)N[C@@H](Cc2ccccc2)C(=O)N[C@H]1C(=O)O.O=C(O)C(F)(F)F	0.77	0.73	0.85	0.85	-0.57	0.98	0.94	0.24	0.67	0.94											Growth Rate [2, 9]: 0.94; Growth Rate [3, 8]: 0.08
c1ccc(NCc2ccc(CNc3ccccn3)cc2)nc1		0.66	0.83	0.98	-1	0.98				0.76	0.7	0.76	0.93	1	0.23	0.64	0.88				Growth Rate [1, 8]: 0.94; Growth Rate [1, 13]: 0.44
COc1cc(OC2CCN(C(C)=O)CC2)ccc1C(=O)N1CCC(N2C(=O)OCc3ccccc32)CC1	0.92					0.78	0.88		-0.07	0.24		0.91	0.91	-0.41	0.28	0.65	0.37	0.85			Growth Rate [2, 4]: 0.75; Growth Rate [2, 9]: 0.79; Growth Rate [2, 6]: 0.77
NC(=O)c1ccc(CNC(=O)NC[C@H]2CN(Cc3ccc(Cl)c(Cl)c3)CCO2)cc1		0.47		0.88	0.11			0.21				0.91						0.32	1	0.88	Growth Rate [1, 8]: 0.54; Growth Rate [1, 13]: 0.86; Growth Rate [1, 11]: 0.8; Growth Rate [2, 13]: 0.8
CCc1nc2c(C)cc(C)nc2[nH]1						0.93	0.96	0.65				0.7		0.58		0.69		0.2	0.89		Growth Rate [2, 13]: 0.62; Growth Rate [3, 10]: 0.92
Cc1[nH]cnc1CN1CCc2c(c3ccccc3n2C)C1=O [ALOSETRON]	0.73					0.87	0.9	0.35			0.39	0.89		0.22				0.03	0.96		Growth Rate [3, 10]: 1
COC1(C[S@@+]([O-])c2ccccc2)CCN(CCc2c[nH]c3ccc(F)cc23)CC1	0.79		0.77	0.91	-1				0.42	0.53	0.72			-0.24	0.32	0.15	0.49	-0.09		0.8	Growth Rate [2, 4]: 0.42; Growth Rate [3, 10]: 0.53; Growth Rate [3, 11]: 0.79
CC(C)NCC(O)COc1cccc2[nH]ccc12 (stereo not given) [PINDOLOL]		0.7		0.97	0.98			0.32		0.9		0.88	0.7		0.78		0.94	0.52	0.94	0.82	Growth Rate [1, 8]: -0.05; Growth Rate [1, 11]: 0.98; Growth Rate [2, 4]: -0.36; Growth Rate [2, 13]: 0.93; Growth Rate [3, 8]: -0.46
CC1(COc2ccc3c(c2)ncn3-c2ccc3cccc(N4CCC(N)CC4)c3n2)COC1 [CRENOLANIB]	-0.26	-0.46	-0.23	-0.28		0.92	0.8	-0.8			-0.5	0.87	0.54						-0.21	-0.22	Growth Rate [1, 8]: -0.11; Growth Rate [1, 13]: -0.32; Growth Rate [1, 11]: -0.19; Growth Rate [3, 8]: -0.75
O=C1NCc2ccc3c(-c4cccc(Cl)c4)c[nH]c3c21		-0.52	-0.09	-0.21	0.01	-0.24	-0.28		-0.99	-0.39	-0.56	0.03	-0.13	-0.83	-0.86	-0.4	-0.65	0.17	-0.1	-0.19	Growth Rate [1, 13]: -0.31; Growth Rate [1, 11]: -0.07; Growth Rate [2, 4]: -0.28; Growth Rate [2, 9]: -0.08; Growth Rate [2, 13]: 0.07; Growth Rate [2, 6]: -0.24; Growth Rate [3, 10]: -0.18; Growth Rate [3, 11]: 0.01
CCCCCCCCCCCCC/C=C/[C@@H](O)[C@@H](N)COP(=O)([O-])OCC[N+](C)(C)C [SPHINGOSYLPHOSPHORYLCHLOLINE]		-0.01	-0.08	0.46		0.8	0.88		-0.36	0.17	-0.35		0.9	-0.69	-0.22	-0.25	-0.17	0.97	0.29	0.43	Growth Rate [1, 13]: 0.28; Growth Rate [1, 11]: 0.54; Growth Rate [2, 6]: 0.91; Growth Rate [3, 10]: 0.1; Growth Rate [3, 11]: 0.07
